Calls of active or inactive are those of the source.
Assays:
[1] = target: Serine/threonine-protein phosphatase PP1-alpha catalytic subunit (Homo sapiens, UniProt P62136); assay: inhibition of protein phosphatase 1 activity – biochemical, fluorescence, dose response (AID 2403);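 note: phosphatase turnover of OMFP into fluorescent 3-O-methylfluorescein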
[2] = target: T1, Zinc finger protein mex-5 (Caenorhabditis elegans, UniProt Q9XUB2); assay: potency of MEX-5 RNA-binding blockers – biochemical, C. elegans, fluorescence polarization, dose response (AID 1960)
T1 sequence (Q9XUB2 whole entry): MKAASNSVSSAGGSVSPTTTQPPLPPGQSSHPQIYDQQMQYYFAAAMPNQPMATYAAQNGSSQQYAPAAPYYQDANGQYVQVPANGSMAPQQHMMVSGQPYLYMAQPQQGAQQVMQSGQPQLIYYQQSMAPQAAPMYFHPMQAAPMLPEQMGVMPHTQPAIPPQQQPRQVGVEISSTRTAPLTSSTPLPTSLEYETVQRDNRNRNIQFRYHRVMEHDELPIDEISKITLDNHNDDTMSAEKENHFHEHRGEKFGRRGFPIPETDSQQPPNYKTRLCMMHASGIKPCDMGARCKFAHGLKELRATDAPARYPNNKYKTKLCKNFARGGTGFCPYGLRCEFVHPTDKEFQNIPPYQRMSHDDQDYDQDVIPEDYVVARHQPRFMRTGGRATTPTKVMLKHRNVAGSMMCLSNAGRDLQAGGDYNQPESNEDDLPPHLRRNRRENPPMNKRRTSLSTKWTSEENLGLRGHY

[3] = target: T2, Serine/threonine-protein phosphatase (Homo sapiens, UniProt Q9BPW0); assay: Counterscreen for inhibitors of PP1: fluorescence-based biochemical high throughput dose response assay to identify inhibitors of Protein Phosphatase 5 (PP5). [Related pubchem assays: 2034 (Summary (PP5 inhibitors)), 1987 (PP5 inhibitors in singlate), 2235 (PP1 inhibitors in singlate)]
T2 sequence (Q9BPW0 whole entry): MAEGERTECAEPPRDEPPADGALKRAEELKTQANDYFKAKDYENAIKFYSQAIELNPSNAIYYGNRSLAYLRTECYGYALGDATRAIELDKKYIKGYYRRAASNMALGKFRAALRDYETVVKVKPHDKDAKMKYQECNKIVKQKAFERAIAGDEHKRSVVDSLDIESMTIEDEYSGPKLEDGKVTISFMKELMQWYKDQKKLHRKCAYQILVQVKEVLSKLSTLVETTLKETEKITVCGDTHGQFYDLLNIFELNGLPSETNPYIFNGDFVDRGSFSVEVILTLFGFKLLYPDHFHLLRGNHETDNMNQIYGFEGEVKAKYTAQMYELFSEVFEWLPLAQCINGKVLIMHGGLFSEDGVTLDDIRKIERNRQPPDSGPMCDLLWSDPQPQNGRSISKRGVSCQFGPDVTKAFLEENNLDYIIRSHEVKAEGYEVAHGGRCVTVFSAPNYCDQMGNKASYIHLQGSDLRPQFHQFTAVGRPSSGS

[4] = target: T3, Voltage-gated N-type calcium channel alpha-1B subunit/Amyloid beta A4 precursor protein-binding family A member 1 (Homo sapiens, UniProt Q00975+Q02410); format: protein assay
T3 sequence (Q00975 whole entry): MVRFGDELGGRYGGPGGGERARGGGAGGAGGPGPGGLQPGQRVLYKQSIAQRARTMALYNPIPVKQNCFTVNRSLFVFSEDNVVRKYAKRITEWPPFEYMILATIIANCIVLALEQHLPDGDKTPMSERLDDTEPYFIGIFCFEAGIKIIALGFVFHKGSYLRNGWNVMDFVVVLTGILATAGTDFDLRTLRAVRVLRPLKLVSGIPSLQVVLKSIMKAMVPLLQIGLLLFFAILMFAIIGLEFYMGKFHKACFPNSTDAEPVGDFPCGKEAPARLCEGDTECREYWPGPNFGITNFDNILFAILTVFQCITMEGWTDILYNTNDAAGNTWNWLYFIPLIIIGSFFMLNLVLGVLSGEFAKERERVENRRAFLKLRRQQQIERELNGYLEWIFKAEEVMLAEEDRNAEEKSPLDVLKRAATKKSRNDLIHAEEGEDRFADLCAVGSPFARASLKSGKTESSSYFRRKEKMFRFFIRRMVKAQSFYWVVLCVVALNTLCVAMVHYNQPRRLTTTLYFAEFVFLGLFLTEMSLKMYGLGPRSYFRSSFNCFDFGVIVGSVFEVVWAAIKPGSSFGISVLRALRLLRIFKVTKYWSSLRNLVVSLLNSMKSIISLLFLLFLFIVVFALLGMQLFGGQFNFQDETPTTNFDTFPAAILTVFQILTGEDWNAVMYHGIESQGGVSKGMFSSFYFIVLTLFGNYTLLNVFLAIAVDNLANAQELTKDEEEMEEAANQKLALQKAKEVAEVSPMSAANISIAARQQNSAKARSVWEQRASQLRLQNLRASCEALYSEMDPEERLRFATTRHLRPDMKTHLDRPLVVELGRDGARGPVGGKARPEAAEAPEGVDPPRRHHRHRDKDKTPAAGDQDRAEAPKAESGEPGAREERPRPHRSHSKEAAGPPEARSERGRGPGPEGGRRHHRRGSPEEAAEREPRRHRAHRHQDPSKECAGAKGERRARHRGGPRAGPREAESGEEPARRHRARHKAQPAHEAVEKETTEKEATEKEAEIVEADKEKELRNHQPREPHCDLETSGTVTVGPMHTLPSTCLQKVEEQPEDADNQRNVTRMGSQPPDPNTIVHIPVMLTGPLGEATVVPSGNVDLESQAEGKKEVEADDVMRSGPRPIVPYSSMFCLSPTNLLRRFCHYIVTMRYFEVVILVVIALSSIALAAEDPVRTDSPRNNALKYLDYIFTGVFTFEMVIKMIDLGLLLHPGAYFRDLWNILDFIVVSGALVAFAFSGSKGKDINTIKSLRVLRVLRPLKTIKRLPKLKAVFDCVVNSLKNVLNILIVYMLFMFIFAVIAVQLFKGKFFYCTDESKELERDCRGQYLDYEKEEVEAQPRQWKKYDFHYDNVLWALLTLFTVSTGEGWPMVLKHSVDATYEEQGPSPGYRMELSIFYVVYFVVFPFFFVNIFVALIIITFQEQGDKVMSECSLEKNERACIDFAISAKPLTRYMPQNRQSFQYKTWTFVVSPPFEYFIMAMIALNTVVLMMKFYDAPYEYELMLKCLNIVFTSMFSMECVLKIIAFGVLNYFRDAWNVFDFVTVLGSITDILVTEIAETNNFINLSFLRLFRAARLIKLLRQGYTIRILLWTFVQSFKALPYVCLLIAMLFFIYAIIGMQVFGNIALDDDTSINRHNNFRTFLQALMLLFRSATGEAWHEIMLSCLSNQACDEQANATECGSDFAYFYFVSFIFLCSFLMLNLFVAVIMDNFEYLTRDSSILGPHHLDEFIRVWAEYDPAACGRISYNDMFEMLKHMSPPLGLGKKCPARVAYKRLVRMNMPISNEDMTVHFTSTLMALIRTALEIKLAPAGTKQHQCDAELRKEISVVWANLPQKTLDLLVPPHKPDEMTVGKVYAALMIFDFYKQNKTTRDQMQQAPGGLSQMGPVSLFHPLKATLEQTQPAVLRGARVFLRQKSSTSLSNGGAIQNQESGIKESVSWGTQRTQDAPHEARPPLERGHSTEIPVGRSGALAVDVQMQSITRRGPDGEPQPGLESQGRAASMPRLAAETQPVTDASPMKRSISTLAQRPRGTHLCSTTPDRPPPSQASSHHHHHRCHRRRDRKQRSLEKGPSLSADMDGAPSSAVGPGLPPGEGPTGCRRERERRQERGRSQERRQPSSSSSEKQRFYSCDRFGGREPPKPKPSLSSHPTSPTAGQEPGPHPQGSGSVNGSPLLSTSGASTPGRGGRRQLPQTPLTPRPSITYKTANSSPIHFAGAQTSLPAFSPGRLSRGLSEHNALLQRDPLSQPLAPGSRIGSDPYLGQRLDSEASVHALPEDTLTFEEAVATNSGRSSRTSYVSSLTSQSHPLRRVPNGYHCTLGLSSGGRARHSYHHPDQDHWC
T3 sequence (Q02410 whole entry): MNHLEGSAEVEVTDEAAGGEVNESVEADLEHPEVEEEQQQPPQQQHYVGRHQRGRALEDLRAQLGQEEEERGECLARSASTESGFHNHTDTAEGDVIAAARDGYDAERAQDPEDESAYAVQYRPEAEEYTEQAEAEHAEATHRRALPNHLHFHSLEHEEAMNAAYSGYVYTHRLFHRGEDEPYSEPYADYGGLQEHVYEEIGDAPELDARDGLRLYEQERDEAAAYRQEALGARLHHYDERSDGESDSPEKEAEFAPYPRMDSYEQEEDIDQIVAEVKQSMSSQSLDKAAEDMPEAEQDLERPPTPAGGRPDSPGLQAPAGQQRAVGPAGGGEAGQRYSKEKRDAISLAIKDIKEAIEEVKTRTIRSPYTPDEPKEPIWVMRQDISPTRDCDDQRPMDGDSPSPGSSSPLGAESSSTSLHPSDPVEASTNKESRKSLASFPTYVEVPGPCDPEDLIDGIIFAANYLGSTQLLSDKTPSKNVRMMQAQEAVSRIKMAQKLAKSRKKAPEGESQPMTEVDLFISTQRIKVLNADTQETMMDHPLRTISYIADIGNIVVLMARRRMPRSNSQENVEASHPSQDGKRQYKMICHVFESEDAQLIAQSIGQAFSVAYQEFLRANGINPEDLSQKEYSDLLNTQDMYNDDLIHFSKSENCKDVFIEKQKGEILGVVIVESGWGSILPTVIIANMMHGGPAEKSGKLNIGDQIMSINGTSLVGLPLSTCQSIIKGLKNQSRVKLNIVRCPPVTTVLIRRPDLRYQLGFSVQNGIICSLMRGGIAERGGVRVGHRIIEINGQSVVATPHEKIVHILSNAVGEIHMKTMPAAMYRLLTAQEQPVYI

[5] = target: T4, Dual specificity protein phosphatase 3 (Homo sapiens, UniProt P51452); assay: VHR1 phosphatase inhibitors, primary screen, biochemical, absorbance, uHTS (AID 1654)
T4 sequence (P51452 whole entry): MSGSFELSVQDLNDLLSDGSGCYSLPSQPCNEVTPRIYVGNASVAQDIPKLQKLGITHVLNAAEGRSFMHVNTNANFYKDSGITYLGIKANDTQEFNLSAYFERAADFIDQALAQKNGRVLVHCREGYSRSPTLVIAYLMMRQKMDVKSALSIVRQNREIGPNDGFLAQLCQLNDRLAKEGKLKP

[6] = target: T5, Dual specificity protein phosphatase 6 (Rattus norvegicus, UniProt Q64346); assay: inhibition of rat DUSP6 enzyme activity – biochemical, in vitro, primary screen (AID 425)
T5 sequence (Q64346 whole entry): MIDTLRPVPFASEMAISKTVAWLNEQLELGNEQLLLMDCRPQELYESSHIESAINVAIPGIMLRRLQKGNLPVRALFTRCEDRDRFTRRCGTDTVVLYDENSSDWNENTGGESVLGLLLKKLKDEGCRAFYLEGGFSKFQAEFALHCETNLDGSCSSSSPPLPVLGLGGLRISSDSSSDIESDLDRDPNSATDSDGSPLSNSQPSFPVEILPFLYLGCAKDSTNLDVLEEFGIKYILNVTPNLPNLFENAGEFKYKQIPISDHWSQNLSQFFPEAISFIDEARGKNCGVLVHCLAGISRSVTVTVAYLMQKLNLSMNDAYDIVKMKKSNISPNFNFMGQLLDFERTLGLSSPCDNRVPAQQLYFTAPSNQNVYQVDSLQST

[7] = target: T3, Voltage-gated N-type calcium channel alpha-1B subunit/Amyloid beta A4 precursor protein-binding family A member 1; format: protein assay; remark: listed apart in the source
[8] = target: T4, Dual specificity protein phosphatase 3; assay: VHR1 phosphatase inhibitors, biochemical (AID 1878)
[9] = target: T6, Delta-type opioid receptor (Homo sapiens, UniProt P41143); assay: DOR agonists, SAR follow-up, image-based (AID 2370); format: functional
T6 sequence (P41143 whole entry): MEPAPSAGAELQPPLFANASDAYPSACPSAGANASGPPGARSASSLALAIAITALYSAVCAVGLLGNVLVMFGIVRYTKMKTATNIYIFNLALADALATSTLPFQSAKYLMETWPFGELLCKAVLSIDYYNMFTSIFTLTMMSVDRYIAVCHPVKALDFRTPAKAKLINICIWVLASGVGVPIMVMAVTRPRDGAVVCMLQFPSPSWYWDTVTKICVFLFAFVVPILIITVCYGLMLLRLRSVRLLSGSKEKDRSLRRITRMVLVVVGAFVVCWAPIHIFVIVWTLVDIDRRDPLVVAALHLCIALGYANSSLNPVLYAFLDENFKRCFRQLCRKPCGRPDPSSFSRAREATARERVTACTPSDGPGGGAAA

[10] = target: T7, Kappa-type opioid receptor (Homo sapiens, UniProt P41145); assay: kappa opioid receptor activation by imaging – image-based, set 3, SAR follow-up (AID 488833); format: functional
T7 sequence (P41145 whole entry): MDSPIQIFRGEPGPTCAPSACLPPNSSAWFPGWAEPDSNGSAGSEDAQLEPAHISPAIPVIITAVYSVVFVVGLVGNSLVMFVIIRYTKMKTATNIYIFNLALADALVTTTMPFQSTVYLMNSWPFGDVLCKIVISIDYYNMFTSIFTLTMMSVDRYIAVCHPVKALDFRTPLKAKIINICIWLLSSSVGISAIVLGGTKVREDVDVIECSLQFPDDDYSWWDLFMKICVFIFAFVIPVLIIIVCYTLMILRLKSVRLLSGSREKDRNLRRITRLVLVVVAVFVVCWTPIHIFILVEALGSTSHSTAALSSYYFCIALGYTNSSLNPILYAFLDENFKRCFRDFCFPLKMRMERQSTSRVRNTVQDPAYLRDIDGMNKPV

[11] = target: T7, Kappa-type opioid receptor; assay: SAR analysis of small molecule agonists of the kappa opioid receptor via a luminescent beta-arrestin assay. [Related pubchem assays (depositor defined):AID1777, AID1786, AID1966, AID2133, AID2136, AID2348, AID2352, AID2357, AID2359, AID2370, AID2420, AID2478, AID2491, AID2492, AID2493, AID2497, AID2498, AID2500, AID449737, AID488822, AID488842]; format: functional
[12] = target: T6, Delta-type opioid receptor; assay: delta opioid receptor blockers – image-based, SAR follow-up (AID 2357); format: functional
[13] = target: T8, Mu-type opioid receptor (Homo sapiens, UniProt P35372); assay: mu opioid receptor blockers – image-based, SAR follow-up (AID 2420); format: functional;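 note: compounds added before stimulation of receptor with agonist DAMGO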
T8 sequence (P35372 whole entry): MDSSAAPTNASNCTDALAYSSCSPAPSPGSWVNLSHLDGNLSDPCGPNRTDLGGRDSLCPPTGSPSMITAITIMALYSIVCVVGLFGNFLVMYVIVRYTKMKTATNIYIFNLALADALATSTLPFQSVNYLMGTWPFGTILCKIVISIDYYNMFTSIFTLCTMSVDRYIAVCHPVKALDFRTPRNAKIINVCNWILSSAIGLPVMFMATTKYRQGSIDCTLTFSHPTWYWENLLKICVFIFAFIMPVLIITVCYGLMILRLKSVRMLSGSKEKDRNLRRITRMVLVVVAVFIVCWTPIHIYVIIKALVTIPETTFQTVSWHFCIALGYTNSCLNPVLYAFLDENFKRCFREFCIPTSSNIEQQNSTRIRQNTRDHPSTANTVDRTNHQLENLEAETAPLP

[14] = target: T7, Kappa-type opioid receptor; assay: kappa opioid receptor blockers, image-based, SAR follow-up (AID 2348); format: functional
[15] = target: T6, Delta-type opioid receptor; assay: SAR Analysis of Agonists of the DOR Receptor using an Image-Based Assay - Set 3. [Related pubchem assays (depositor defined):AID1777, AID1786]; format: functional
[16] = target: T7, Kappa-type opioid receptor; assay: kappa opioid receptor activation potency – imaging, image-based, SAR follow-up (AID 2359); format: functional
[17] = target: T8, Mu-type opioid receptor; assay: mu opioid receptor activators, image-based, SAR follow-up (AID 2352); format: functional
[18] = target: T7, Kappa-type opioid receptor; assay: SAR analysis of small molecule agonists of the kappa opioid receptor via a luminescent beta-arrestin assay - Set 3. [Related pubchem assays (depositor defined):AID1777, AID1785, AID1786, AID1966, AID2133, AID2136, AID2284, AID2500]; format: functional
[19] = target: T8, Mu-type opioid receptor; assay: SAR Analysis of Agonists of the MOR Receptor using an Image-Based Assay - Set 3. [Related pubchem assays (depositor defined):AID1777, AID1785, AID1786, AID1966, AID2133, AID2136, AID2284, AID2285, AID2352]; format: functional
[20] = target: Trypsin (Sus scrofa, UniProt P00761); assay: trypsin protease activity blockade – biochemical, quenched peptide fluorescence, cherry-pick, selectivity assay for Rce1 protease inhibitor project, dose response (AID 488789)
[21] = target: CAAX prenyl protease 1 (Saccharomyces cerevisiae S288c, UniProt P47154); assay: yeast CAAX protease Ste24 inhibition – biochemical, S. cerevisiae, plate reader, cherry-pick, dose response (AID 488815)
CAAX prenyl protease 1, sequence (P47154 whole entry): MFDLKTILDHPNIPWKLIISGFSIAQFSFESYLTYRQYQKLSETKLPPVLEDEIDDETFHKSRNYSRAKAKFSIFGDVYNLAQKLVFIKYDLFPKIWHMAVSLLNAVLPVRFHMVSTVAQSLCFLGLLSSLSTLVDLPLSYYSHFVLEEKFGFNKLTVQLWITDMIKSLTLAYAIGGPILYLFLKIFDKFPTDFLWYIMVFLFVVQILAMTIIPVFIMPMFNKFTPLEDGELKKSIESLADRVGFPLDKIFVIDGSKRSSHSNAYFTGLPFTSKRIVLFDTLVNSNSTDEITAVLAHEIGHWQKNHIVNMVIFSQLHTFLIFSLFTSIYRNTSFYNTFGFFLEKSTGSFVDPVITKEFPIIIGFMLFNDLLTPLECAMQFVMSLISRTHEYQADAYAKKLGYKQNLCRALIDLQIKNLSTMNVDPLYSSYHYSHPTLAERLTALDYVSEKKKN

[22] = restored growth of temperature-sensitive Burl-1 yeast – whole organism, S. cerevisiae, Burl-1 ts mutant, luminescence, counter-screen for SUMOylation pathway inhibitor project, dose response (AID 463199); format: functional
[23] = target: T9, Mannose-6-phosphate isomerase (Homo sapiens, UniProt P34949); assay: phosphomannose isomerase inhibition – biochemical, fluorescence intensity, confirmation (AID 1535)
T9 sequence (P34949 whole entry): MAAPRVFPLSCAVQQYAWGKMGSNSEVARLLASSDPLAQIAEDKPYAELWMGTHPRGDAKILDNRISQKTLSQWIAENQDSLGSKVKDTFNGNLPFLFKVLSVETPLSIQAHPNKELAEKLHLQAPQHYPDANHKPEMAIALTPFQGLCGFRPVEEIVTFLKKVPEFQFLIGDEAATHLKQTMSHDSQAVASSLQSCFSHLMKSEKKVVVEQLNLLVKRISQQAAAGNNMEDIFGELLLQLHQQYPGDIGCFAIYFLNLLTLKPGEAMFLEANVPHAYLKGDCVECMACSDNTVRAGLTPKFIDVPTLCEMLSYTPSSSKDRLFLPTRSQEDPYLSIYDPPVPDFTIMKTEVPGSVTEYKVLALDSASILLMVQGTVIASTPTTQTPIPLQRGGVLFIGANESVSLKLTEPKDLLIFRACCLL

[24] = target: Phosphomannomutase 2 (Homo sapiens, UniProt O15305); assay: Counter screen SAR assay for PMM2 inhibitors via a fluorescence intensity assay. [Related pubchem assays (depositor defined):AID1545, AID1574]
[25] = target: Apelin receptor (Homo sapiens, UniProt P35414); assay: apelin receptor antagonists, arrestin read-out – cell-based, luminescent, enzyme-fragment complementation, selectivity assay for CCR6 antagonist project, SAR follow-up (AID 588359); format: functional

Which IC50 [1] does the source give for `O=C1NC(=S)N(c2ccc(F)cc2)C(=O)/C1=C/c1ccco1` here?
Its IC50 is 8.21 µM (active).

What about the EC50 [2] of the same compound?
The EC50 was 11.1 µM (active).

What about the IC50 [3] of the same compound?
Its IC50 is > 67 µM (not active).

And the IC50 [4]?
Its IC50 is 4.45 µM (active).

What about the IC50 [5] of the same compound?
Its IC50 is < 1.23 µM (inactive).

And the IC50 [6]?
Its IC50 is 1.36 µM (active).

And the IC50 [7]?
The IC50 was 3.33 µM (active).

And the IC50 [8]?
The IC50 was < 1.23 µM (inactive).

With `Clc1ccccc1CSc1nnc(-c2ccccn2)n1Cc1ccco1` as the compound, how does the EC50 [9] read?
Its EC50 is > 32 µM (inactive).

And the EC50 [10]?
Its EC50 is 11.6 µM (inactive).

What about the EC50 [11] of the same compound?
Its EC50 is > 10 µM (inactive).

And the IC50 [12]?
Its IC50 is > 32 µM (inactive).

And the IC50 [13]?
Its IC50 is > 32 µM (inactive).

What about the IC50 [14] of the same compound?
The IC50 was > 32 µM (inactive).

And the EC50 [15]?
Its EC50 is > 64 µM (inactive).

What about the EC50 [16] of the same compound?
Its EC50 is 10.4 µM (active).

And the EC50 [17]?
Its EC50 is > 32 µM (inactive).

What about the EC50 [18] of the same compound?
Its EC50 is 9.07 µM (active).

What about the EC50 [19] of the same compound?
The EC50 was > 32 µM (inactive).

Which AC50 [20] does the source give for `COc1cccc(C2CC3=Nc4ccccc4N(C(=O)CCC(=O)O)C(c4ccc(F)cc4)C3=C(O)C2)c1` (stereo not given) here?
The AC50 was 12 µM (active).

What about the AC50 [21] of the same compound?
The AC50 was 21.6 µM (active).

With `S=C(NCCc1c[nH]c2ccccc12)NC1CC1` as the compound, how does the AC50 [22] read?
The AC50 was 51 µM (active).

For `O=C1c2ccccc2SC1c1ccccc1` (stereo not given), which IC50 [23] is on record?
Its IC50 is > 100 µM (inactive).

And the IC50 [24]?
The IC50 was > 100 µM (inactive).

For `C/C(=N\Nc1ccc2ccccc2n1)c1ccccc1O`, which IC50 [25] is on record?
Its IC50 is 4.12 µM (active).
